Like-named read-outs stand apart in the source and are kept apart here.
Legend:
[1] = test system: Daudi cell line (AID positive); assay: Primary screening cell killing assay, Daudi cell line (AID positive); type: cell-based; settings: Homo sapiens, 168 h, cell death on Day 7, Cell-Titer Glo
How it was run: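 AID-positive Daudi cells, 1250 per well, were exposed to serially diluted compounds for 7 days at 37° C. Viability read by CellTiter-Glo luminescence; percent cell death and EC50 derived against untreated wells after media-blank subtraction.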

[2] = test system: Caco-2 cells; assay: Bi-directional Caco-2 permeability; type: in vitro ADME; settings: Caco-2
Method: (§1) Bi-directional Caco-2 permeability was assayed. Caco-2 cells were seeded onto permeable polycarbonate supports and allowed to differentiate for about 3 weeks prior to being used in the assays. The cells were then exposed to the compounds from either the apical or basolateral sides and incubated at 37 C for up to 90 minutes under light agitation. Compound transport was then measured using LC/MS/MS analysis at 30, 60, and 90 minutes.

[3] = test system: WI-38 cells (AID negative); assay: Primary screening cell killing assay repeated in WI-38 cells (AID negative); type: cell-based; settings: Homo sapiens, 168 h, cell death on Day 7, Cell-Titer Glo
How it was run: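 Cell-killing counter-screen in AID-negative WI-38 cells, probing RAD51 inhibition via AID/RAD51 synthetic lethality. Viability luminescence (RLU) was media-subtracted, normalized to DMSO wells, and converted to percent kill (1 − normalized RLU) × 100; EC50 came from non-linear regression on a semi-log scale.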

[4] = test system: Daudi (Lymphoma); assay: Cell line screen, Daudi; type: cell-based; settings: Homo sapiens, AICDA Expression High
Method: (§2) The activity of the claimed compounds was measured in a variety of cell lines with different expression levels of activation induced cytidine deaminase (AICDA). The potency assay was repeated in all of the listed cell lines and the EC50 values recorded.

[5] = test system: WSU-FSCCL (Lymphoma); assay: Cell line screen, WSU-FSCCL; type: cell-based; settings: AICDA Expression Negative
Method: as §2

[6] = test system: OV56 (Ovary); assay: Cell line screen, OV56; type: cell-based; settings: AICDA Expression Low
Method: as §2

[7] = Human liver microsome stability; type: in vitro ADME; settings: human liver microsomes; for half-life / microsomal CLint: 37° C., 45 minutes; for microsomal CLint: read-out: Clearance (μg/min/mg)
Method: The stability of the claimed compounds was determined in the presences of human liver microsomes. The compounds were incubated with the microsomes at 37° C. for 45 minutes. Samples were analyzed using LC-MS/MS. Data analysis included half-life, clearance rate, and the percentage of hepatic blood flow (% QH) for each of the compounds in the different species.

[8] = Pharmacokinetic (PK) study, plasma by LC-MS; type: in vivo, Rat; settings: po @ 80 mg/kg (30% PEG400, 10% Vitamin E TPGS in water); for half-life: plasma
Method: PK studies in mice were used to determine the fate of the compounds in a whole organism. Rats were treated with the compounds either orally of via IV at the indicated doses and followed for up to 24 hours. Plasma samples were taken at different time points and analyzed by LC-MS.

[9] = Bi-directional Caco-2 permeability; type: in vitro ADME; settings: human; for efflux ratio at 90 min: Caco-2, read-out: BA/AB Ratio; for Papp A→B at 90 min: Caco-2, apical to basolateral, read-out: AB Papp (cm/sec × 10^6); for Papp A→B at 90 min / Papp B→A at 90 min: 37 C, up to 90 minutes; for Papp B→A at 90 min: Caco-2, basolateral to apical, read-out: BA Papp (cm/sec × 10^6)
Method: as §1

[10] = test system: TOV-1120D (Ovary); assay: Cell line screen, TOV-1120D; type: cell-based; settings: AICDA Expression Negative
Method: as §2

[11] = test system: U-698-M (Lymphoma); assay: Cell line screen, U-698-M; type: cell-based; settings: AICDA Expression High
Method: as §2

[12] = test system: CCRF-SB (Leukemia); assay: Cell line screen, CCRF-SB; type: cell-based; settings: Homo sapiens, AICDA Expression High
Method: as §2

[13] = test system: WI-38 (Normal Human Lung Fibroblast); assay: Cell line screen, WI-38; type: cell-based; settings: AICDA Expression Negative
Method: as §2

[14] = test system: ARPE19/HPV16 (HPV Immortalized RPE); assay: Cell line screen, ARPE19/HPV16; type: cell-based; settings: ARPE-19, AICDA Expression Negative
Method: as §2

[15] = test system: KYSE-70 (Head and Neck); assay: Cell line screen, KYSE-70; type: cell-based; settings: Homo sapiens, AICDA Expression Low
Method: as §2

[16] = test system: KYSE-510 (Head and Neck); assay: Cell line screen, KYSE-510; type: cell-based; settings: Homo sapiens, AICDA Expression Negative
Method: as §2

[17] = test system: KG-1 (Leukemia); assay: Cell line screen, KG-1; type: cell-based; settings: AICDA Expression Negative
Method: as §2

[18] = Caco-2, Caco-2, AB direction, read-out: AB Recovery %
[19] = Caco-2, Caco-2, BA direction, read-out: BA Recovery %

SMILES | EC50 [1] | EC50 [3] | EC50 [4] | EC50 [5] | % QH (percentage of hepatic blood flow) [7] | half-life [7] | microsomal CLint [7] | F (%) @ 5 mg/kg ([8]; Rat Female) | F (%) @ 5 mg/kg ([8]; Rat Male) | half-life ([8]; Rat Female) | half-life ([8]; Rat Male) | recovery at 90 min [9, 18] | recovery at 90 min [9, 19] | efflux ratio at 90 min [9] | Papp A→B at 90 min [9] | Papp B→A at 90 min [9] | EC50 [11] | EC50 [12] | EC50 [13] | EC50 [14] | also measured
CC(C)OC(=O)Nc1ccc(-c2cnc([C@@H]3CC[C@@H](NC(=O)OC(C)C)CO3)s2)c(S(=O)(=O)NC(C)(C)C)c1 (relative stereo) [Ex. 60, trans-isopropyl N-[6-[5-[2-(tert-butylsulfamoyl)-4-(isopropoxycarbonylamino)phenyl]thiazol-2-yl]tetrahydropyran-3-yl]carbamate] | 0.1 to 1 µM | > 1 µM |  |  |  |  |  |  |  |  |  |  |  |  |  |  |  |  |  |  | BA/AB Ratio [2]: 0.9
CC(C)OC(=O)N[C@H]1CC[C@H](c2ncc(-c3ccc(NC(=O)NCc4ccccn4)cc3S(=O)(=O)NC(C)(C)C)s2)CC1 [Ex. 29, isopropyl ((1r,4r)-4-(5-(2-(N-(tert-butyl)sulfamoyl)-4-(3-(pyridin-2-ylmethyl)ureido)phenyl)thiazol-2-yl)cyclohexyl)carbamate] | ≤ 0.1 µM | > 1 µM | 0.043 µM | 0.067 µM | 78.8% | 0.342 h | 68 µL/min/mg | 8.39% | 3.69% | 4.66 h | 3.97 h | 93.9% | 90.9% | 2.2 | 10.9 ×10⁻⁶ cm/s | 24.1 ×10⁻⁶ cm/s | 0.113 µM | 1.28 µM | > 10 µM | > 10 µM | EC50 [6]: 9.09 µM; EC50 [10]: 9.17 µM; EC50 [15]: 4.66 µM; EC50 [16]: > 10 µM; EC50 [17]: > 10 µM
CC(C)OC(=O)N[C@H]1CC[C@H](c2ncc(-c3ccc(NC(=O)NCc4ncccc4F)cc3S(=O)(=O)NC(C)(C)C)s2)CC1 [Ex. 31, isopropyl ((1r,4r)-4-(5-(2-(N-(tert-butyl)sulfamoyl)-4-(3-((3-fluoropyridin-2-yl)methyl)ureido)phenyl)thiazol-2-yl)cyclohexyl)carbamate] | ≤ 0.1 µM | > 1 µM | 0.02 µM | < 0.04 µM | 77.3% | 0.373 h | 61.9 µL/min/mg | 2.77% | 1.49% | 4.75 h | 3.79 h | 70.5% | 92.3% | 1.1 | 12.8 ×10⁻⁶ cm/s | 13.6 ×10⁻⁶ cm/s | 0.031 µM | 2.16 µM | > 10 µM | > 10 µM | EC50 [15]: 4.7 µM; EC50 [16]: > 10 µM; EC50 [17]: 8.79 µM
CC(C)OC(=O)Nc1ccc(-c2cnc([C@H]3CC[C@H](NC(=O)OC(C)C)CO3)s2)c(S(=O)(=O)NC(C)(C)C)c1 [Ex. 60B] | 0.1 to 1 µM | > 1 µM |  |  |  |  |  |  |  |  |  | 51.2% | 84.3% | 1.2 | 11.6 ×10⁻⁶ cm/s | 13.5 ×10⁻⁶ cm/s |  |  |  |  | 
CC(C)OC(=O)N[C@@H]1CC[C@@H](c2ncc(-c3ccc(NC(=O)NCc4ccccc4)cc3S(=O)(=O)NC(C)(C)C)s2)NC1 [Ex. 64, isopropyl ((3R,6S)-6-(5-(4-(3-benzylureido)-2-(N-(tert-butyl)sulfamoyl)phenyl)thiazol-2-yl)piperidin-3-yl)carbamate] | ≤ 0.1 µM | > 1 µM |  |  |  |  |  |  |  |  |  | 79.7% | 95.9% | 12.5 | 2.2 ×10⁻⁶ cm/s | 27.4 ×10⁻⁶ cm/s |  |  |  |  | 
